Assay results published in EP1974608A1, “Arylpyridazines as fungicides” (Bayer CropScience AG, priority 2007, dated 2008).
Like-named read-outs stand apart in the source and are kept apart here.

Experiments:
[1] = logP determination by reversed-phase HPLC (C18), EEC Directive 79/831 Annex V.A8; format: physicochemical
Venturia inaequalis = experiment: Venturia test (apple) / protective; format: in vivo; conditions: 100ppm Wirkstoff; protective spray on young apple plants; evaluated 10 days after inoculation
Description: Venturia - Test (Apfel) / protektiv
(§1) Zur Herstellung einer zweckmäßigen Wirkstoffzubereitung vermischt man 1 Gewichtsteil Wirkstoff mit den angegebenen Mengen Lösungsmittel und Emulgator und verdünnt das Konzentrat mit Wasser auf die gewünschte Konzentration.
Zur Prüfung auf protektive Wirksamkeit werden junge Pflanzen mit der Wirkstoff zubereitung in der angegebenen Aufwandmenge besprüht. Nach Antrocknen des Spritzbelages werden die Pflanzen mit einer wäßrigen Konidiensuspension des Apfelschorferregers Venturia inaequalis inokuliert und verbleiben dann 1 Tag bei ca. 20°C und 100% relativer Luftfeuchtigkeit in einer Inkubations-kabine.
Die Pflanzen werden dann im Gewächshaus bei ca, 21°C und einer relativen Luftfeuchtigkeit von ca. 90% aufgestellt.
10 Tage nach der Inokulation erfolgt die Auswertung. Dabei bedeutet 0% ein Wirkungsgrad, der demjenigen der Kontrolle entspricht, während ein Wirkungsgrad von 100% bedeutet, daß kein Befall beobachtet wird.

Alternaria solani = experiment: Alternaria test (tomato) / protective; format: in vivo; conditions: 500ppm Wirkstoff; protective spray on young tomato plants; evaluated 7 days after inoculation
Description: Alternaria-Test (Tomate) / protektiv
as §1
Zur Prüfung auf protektive Wirksamkeit bespritzt man junge Tomatenpflanzen mit der Wirkstoffzubereitung in der angegebenen Aufwandmenge. 1 Tag nach der Behandlung werden die Pflanzen mit einer Sporensuspension von Alternaria solani inokuliert und stehen dann 24h bei 100% rel. Feuchte und 20°C. Anschließend stehen die Pflanzen bei 96% rel. Luftfeuchtigkeit und einer Temperatur von 20°C.
7 Tage nach der Inokulation erfolgt die Auswertung. Dabei bedeutet 0 % ein Wirkungsgrad, der demjenigen der Kontrolle entspricht, während ein Wirkungsgrad von 100 % bedeutet, dass kein Befall beobachtet wird.

[2] = reversed-phase c18 hplc, HPLC, 40°C, 0.1% aqueous formic acid / acetonitrile gradient 10% to 95%, read-out: log p
[3] = HPLC method of the footnote to Tabelle 1

With Cc1nc(-c2c(Cl)nnc(C)c2-c2ccc(Cl)cc2)cs1 [Beispiel 26] the chromatographic logP [1, 2] was 2.82.
With Cc1nc(-c2c(-c3ccc(Cl)cc3)c(C)n[nH]c2=O)cs1 [5-(4-Chlorphenyl)-4-(2-methyl-1,3-thiazol-4-yl)-6-methylpyridazin-3(2H)-on] the logP [1, 3] was 2.26.
In the case of CC1(O)OC(=O)C(c2cccs2)=C1c1ccc(Cl)cc1 (stereo not shown) [4-(4-Chlorphenyl)-5-hydroxy-5-methyl-3-(2-thienyl)furan-2(5H)-on], the logP [1, 3] was 3.05.
With Cc1nnc(Cl)c(-c2nc(Cl)c(Cl)s2)c1-c1ccc(Cl)cc1 [Beispiel 28] the chromatographic logP [1, 2] was 4.32.
For Cc1n[nH]c(=O)c(-c2nc(Cl)c(Cl)s2)c1-c1ccc(Cl)cc1 [5-(4-Chlorphenyl)-4-(4,5-Dichlor-1,3-thiazol-2-yl)-6-methylpyridazin-3(2H)-on], the logP [1, 3] was 3.94.
Cc1n[nH]c(=O)c(-c2cccn2C)c1-c1ccc(Cl)cc1 [5-(4-Chlorphanyl)-4-(1-Methyl-1H-pyrrol-2-yl)-6-methylpyridazin-3(2H)-on] showed a logP [1, 3] of 2.45.
Cc1nnc(Cl)c(-c2cccs2)c1-c1ccc(Cl)cc1 [Beispiel 29, 3-Chlor-5-(4-chlorphenyl)-4-(2-thienyl)-6-methylpyridazin] gave a Wirkungsgrad (Venturia inaequalis) of no less than 70%, a Wirkungsgrad (Alternaria solani) of no less than 70% and a chromatographic logP ([1]; c18 reversed-phase hplc, HPLC method of the footnote to Tabelle 1) of 3.41. It also gave a chromatographic logP [1, 2] of 3.41.
For CC(Br)C(=O)c1ccc(Cl)cc1 (stereo not shown) [2-Brom-1-(4-chlorphenyl)propan-1-on], the chromatographic logP ([1]; reversed-phase c18 hplc, HPLC method of the footnote to Tabelle 1) was 3.39.
In the case of Cc1n[nH]c(=O)c(-c2cccs2)c1-c1ccc(Cl)cc1 [5-(4-Chlorphenyl)-4-(2-thienyl)-6-methylpyridazin-3(2H)-on], the logP [1, 3] was 2.71.
Work on Cc1nnc(Cl)c(-c2cccn2C)c1-c1ccc(Cl)cc1 [Beispiel 27] yielded a chromatographic logP [1, 2] of 3.24.
